According to the supplement of paper PMC10307832:

Experiments:
Test in all cases: relative viability (nuclei count vs DMSO), 5 days (fraction); higher = more cells survive
[1] = system: LCLC-97TM1
Summary of the method: (§1)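 Lung cancer cell lines in 1536-well plates were dosed by pin tool the day after seeding, either with one drug alone or with a fixed anchor-drug dose plus five library-drug doses (not always all listed) in √10 steps. After 5 days, cells were fixed and their nuclei stained in one step (final 0.05% Triton X-100, 1% formaldehyde, 1 ug/ml Hoechst), then counted on 4× images. Relative viability is the nuclei count in treated wells divided by that in vehicle wells. Values are medians of duplicate plates.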

[2] = system: NCI-H2085
Summary of the method: as §1

[3] = system: NCI-H322M
Summary of the method: as §1

[4] = system: LXF-289
Summary of the method: as §1

[5] = system: H3255
Summary of the method: as §1

[6] = system: EMC-BAC-2
Summary of the method: as §1

[7] = system: NCI-H2023
Summary of the method: as §1

[8] = system: SK-LU-1
Summary of the method: as §1

[9] = system: NCI-H2347
Summary of the method: as §1

[10] = system: EPLC-272H
Summary of the method: as §1

[11] = system: SW 1573
Summary of the method: as §1

[12] = system: NCI-H727
Summary of the method: as §1

[13] = system: NCI-H2126
Summary of the method: as §1

[14] = system: NCI-H1915
Summary of the method: as §1

[15] = system: NCI-H2009
Summary of the method: as §1

[16] = system: NCI-H1993
Summary of the method: as §1

[17] = system: NCI-H1563
Summary of the method: as §1

[18] = system: NCI-H647
Summary of the method: as §1

[19] = system: PC-14
Summary of the method: as §1

[20] = system: NCI-H661
Summary of the method: as §1

[21] = system: NCI-H1734
Summary of the method: as §1

[22] = system: HOP-62
Summary of the method: as §1

In the case of `O=c1cc(-c2cccc3c2Sc2ccccc2S3)oc(N2CCOCC2)c1` + CS(=O)(=O)CCNCc1ccc(-c2ccc3ncnc(Nc4ccc(OCc5cccc(F)c5)c(Cl)c4)c3c2)o1 [Lapatinib] (partner 2 µM), the relative viability ([1]; first compound 0.08 µM) was 0.753, the relative viability ([1]; first compound 0.253 µM) was 0.781 and the relative viability ([1]; first compound 0.8 µM) was 1.25. The relative viability ([1]; first compound 2.53 µM) was 0.685, the relative viability ([1]; first compound 8 µM) was 1.18 and the relative viability ([2]; first compound 0.08 µM) was 0.636. The relative viability ([2]; first compound 0.253 µM) was 0.86, the relative viability ([2]; first compound 0.8 µM) was 0.767 and the relative viability ([2]; first compound 2.53 µM) was 0.703. For the same molecule, the relative viability ([2]; first compound 8 µM) was 0.644, the relative viability ([3]; first compound 0.08 µM) was 0.64 and the relative viability ([3]; first compound 0.253 µM) was 0.768. It also gave a relative viability ([3]; first compound 0.8 µM) of 0.529, a relative viability ([3]; first compound 2.53 µM) of 0.564 and a relative viability ([3]; first compound 8 µM) of 0.607. For the same molecule, the relative viability ([4]; first compound 0.08 µM) was 0.87, the relative viability ([4]; first compound 0.253 µM) was 0.935 and the relative viability ([4]; first compound 0.8 µM) was 0.942. For the same molecule, the relative viability ([4]; first compound 2.53 µM) was 0.856, the relative viability ([4]; first compound 8 µM) was 0.93 and the relative viability ([5]; first compound 0.08 µM) was 0.239. It also gave a relative viability ([5]; first compound 0.253 µM) of 0.226, a relative viability ([5]; first compound 0.8 µM) of 0.224 and a relative viability ([5]; first compound 2.53 µM) of 0.231. It also gave a relative viability ([5]; first compound 8 µM) of 0.225, a relative viability ([6]; first compound 0.08 µM) of 0.873 and a relative viability ([6]; first compound 0.253 µM) of 0.987. The relative viability ([6]; first compound 0.8 µM) was 0.887, the relative viability ([6]; first compound 2.53 µM) was 0.865 and the relative viability ([6]; first compound 8 µM) was 0.929. The relative viability ([7]; first compound 0.08 µM) was 0.767, the relative viability ([7]; first compound 0.253 µM) was 1.03 and the relative viability ([7]; first compound 0.8 µM) was 0.748. The relative viability ([7]; first compound 2.53 µM) was 0.571, the relative viability ([7]; first compound 8 µM) was 0.94 and the relative viability ([8]; first compound 0.08 µM) was 1.02. It also gave a relative viability ([8]; first compound 0.253 µM) of 0.858, a relative viability ([8]; first compound 0.8 µM) of 0.968 and a relative viability ([8]; first compound 2.53 µM) of 0.817. It also gave a relative viability ([8]; first compound 8 µM) of 0.836, a relative viability ([9]; first compound 0.08 µM) of 0.978 and a relative viability ([9]; first compound 0.253 µM) of 1.09. The relative viability ([9]; first compound 0.8 µM) was 1.02, the relative viability ([9]; first compound 2.53 µM) was 1.04 and the relative viability ([9]; first compound 8 µM) was 1.19. For the same molecule, the relative viability ([10]; first compound 0.08 µM) was 0.935, the relative viability ([10]; first compound 0.253 µM) was 0.841 and the relative viability ([10]; first compound 0.8 µM) was 0.867. For the same molecule, the relative viability ([10]; first compound 2.53 µM) was 0.779, the relative viability ([10]; first compound 8 µM) was 1.2 and the relative viability ([11]; first compound 0.08 µM) was 1.02. It also gave a relative viability ([11]; first compound 0.253 µM) of 1.28, a relative viability ([11]; first compound 0.8 µM) of 0.935 and a relative viability ([11]; first compound 2.53 µM) of 1.05. It also gave a relative viability ([11]; first compound 8 µM) of 1.24, a relative viability ([12]; first compound 0.253 µM) of 1.17 and a relative viability ([12]; first compound 2.53 µM) of 0.802. It also gave a relative viability ([12]; first compound 8 µM) of 1.16, a relative viability ([13]; first compound 0.08 µM) of 0.715 and a relative viability ([13]; first compound 0.253 µM) of 0.801. For the same molecule, the relative viability ([13]; first compound 0.8 µM) was 0.679, the relative viability ([13]; first compound 2.53 µM) was 0.679 and the relative viability ([13]; first compound 8 µM) was 0.796. The relative viability ([14]; first compound 0.08 µM) was 1.02, the relative viability ([14]; first compound 0.253 µM) was 1.04 and the relative viability ([14]; first compound 0.8 µM) was 1.13. For the same molecule, the relative viability ([14]; first compound 2.53 µM) was 0.905, the relative viability ([14]; first compound 8 µM) was 1.06 and the relative viability ([15]; first compound 0.08 µM) was 0.879. For the same molecule, the relative viability ([15]; first compound 0.253 µM) was 0.893, the relative viability ([15]; first compound 0.8 µM) was 0.876 and the relative viability ([15]; first compound 2.53 µM) was 0.895. It also gave a relative viability ([15]; first compound 8 µM) of 0.823, a relative viability ([16]; first compound 0.08 µM) of 0.773 and a relative viability ([16]; first compound 0.253 µM) of 0.802. It also gave a relative viability ([16]; first compound 0.8 µM) of 0.849, a relative viability ([16]; first compound 2.53 µM) of 0.875 and a relative viability ([16]; first compound 8 µM) of 0.844. For the same molecule, the relative viability ([17]; first compound 0.08 µM) was 0.872, the relative viability ([17]; first compound 0.253 µM) was 0.978 and the relative viability ([17]; first compound 0.8 µM) was 0.9. The relative viability ([17]; first compound 2.53 µM) was 0.934, the relative viability ([17]; first compound 8 µM) was 0.891 and the relative viability ([18]; first compound 0.08 µM) was 1.19. The relative viability ([18]; first compound 0.253 µM) was 1.21, the relative viability ([18]; first compound 0.8 µM) was 0.985 and the relative viability ([18]; first compound 2.53 µM) was 0.886. For the same molecule, the relative viability ([18]; first compound 8 µM) was 0.83, the relative viability ([19]; first compound 0.08 µM) was 0.291 and the relative viability ([19]; first compound 0.253 µM) was 0.388. The relative viability ([19]; first compound 0.8 µM) was 0.245, the relative viability ([19]; first compound 2.53 µM) was 0.245 and the relative viability ([19]; first compound 8 µM) was 0.308. The relative viability ([20]; first compound 0.08 µM) was 0.481, the relative viability ([20]; first compound 0.253 µM) was 0.412 and the relative viability ([20]; first compound 0.8 µM) was 0.543. For the same molecule, the relative viability ([20]; first compound 2.53 µM) was 0.464, the relative viability ([20]; first compound 8 µM) was 0.579 and the relative viability ([21]; first compound 0.08 µM) was 1.07. The relative viability ([21]; first compound 0.253 µM) was 1.55, the relative viability ([21]; first compound 0.8 µM) was 1.12 and the relative viability ([21]; first compound 2.53 µM) was 0.79. The relative viability ([21]; first compound 8 µM) was 1.51, the relative viability ([22]; first compound 0.08 µM) was 0.829 and the relative viability ([22]; first compound 0.253 µM) was 1.08. The relative viability ([22]; first compound 0.8 µM) was 1.13, the relative viability ([22]; first compound 2.53 µM) was 0.727 and the relative viability ([22]; first compound 8 µM) was 1.07.
